Assay results taken from patent publication US8513243B2, “ABT-263 crystalline forms” (AbbVie Inc., priority 2009, dated 2013).

Experiments:
[1] = sulfoxide formation in lipid solution; format: physicochemical; settings: formulated in lipid solution, in the absence of antioxidant; compared with salt form, e.g. ABT-263 bis-HCl
[2] = tested on: small-cell lung cancer (SCLC) and lymphoid malignancies; settings: against SCLC and lymphoid malignancies; cited from earlier work
[3] = dissolution in a lipid carrier when preparing a liquid formulation; format: physicochemical; settings: solution in a lipid carrier; compared with amorphous form

## CC1(C)CCC(c2ccc(Cl)cc2)=C(CN2CCN(c3ccc(C(=O)NS(=O)(=O)c4ccc(N[C@H](CCN5CCOCC5)CSc5ccccc5)c(S(=O)(=O)C(F)(F)F)c4)cc3)CC2)C1 [ABT-263 free base, N-(4-(4-((2-(4-chlorophenyl)-5,5-dimethyl-1-cyclohex-1-en-1-yl)methyl)piperazin-1-yl)benzoyl)-4-(((1R)-3-(morpholin-4-yl)-1-((phenylsulfanyl)methyl)propyl)amino)-3-((trifluoromethyl)sulfonyl)benzenesulfonamide]
[1]
  susceptibility to sulfoxide formation: less susceptible to sulfoxide formation than ABT-263 in salt form

## CN(C)CC[C@H](CSc1ccccc1)Nc1ccc(S(=O)(=O)NC(=O)c2ccc(N3CCN(Cc4ccccc4-c4ccc(Cl)cc4)CC3)cc2)cc1[N+](=O)[O-] [ABT-737, N-(4-(4-((4′-chloro-(1,1′-biphenyl)-2-yl)methyl)piperazin-1-yl)benzoyl)-4-(((1R)-3-(dimethylamino)-1-((phenylsulfanyl)methyl)propyl)amino)-3-nitrobenzene-sulfonamide]
[2]
  single-agent activity: single-agent activity

## CC1(C)CCC(c2ccc(Cl)cc2)=C(CN2CCN(c3ccc(C(=O)NS(=O)(=O)c4ccc(N[C@H](CCN5CCOCC5)CSc5ccccc5)c(S(=O)(=O)C(F)(F)F)c4)cc3)CC2)C1 [crystalline ABT-263, N-(4-(4-((2-(4-chlorophenyl)-5,5-dimethyl-1-cyclohex-1-en-1-yl)methyl)piperazin-1-yl)benzoyl)-4-(((1R)-3-(morpholin-4-yl)-1-((phenylsulfanyl)methyl)propyl)amino)-3-((trifluoromethyl)sulfonyl)benzenesulfonamide]
[3]
  dissolution behaviour: dissolves faster and has less tendency to form a gel during dissolution
